Source: publication PMC9282237, “Development of an improved inhibitor of Lats kinases to promote regeneration of mammalian organs” (Proceedings of the National Academy of Sciences of the …, 2022)
Read-outs that look alike come from different tables or passages of the source.

How the values were obtained:
[1] = system: Yap phosphorylation in HEK293A cells; test: cellular assay of Yap phosphorylation (ratio of pYap to tYap in homogenates from treated cells); type: cell-based; conditions: HEK293-A
LATS1 = target: T1, LATS1 (Homo sapiens, UniProt O95835); test: in vitro Lats kinase assay (enzymological assay); type: biochemical; conditions: for true inhibitory activities: implied, Lats concentration 555 pM in the assay, affinities at or below lower limit of accurate quantification
T1 sequence (O95835 589-1130 limits assumed): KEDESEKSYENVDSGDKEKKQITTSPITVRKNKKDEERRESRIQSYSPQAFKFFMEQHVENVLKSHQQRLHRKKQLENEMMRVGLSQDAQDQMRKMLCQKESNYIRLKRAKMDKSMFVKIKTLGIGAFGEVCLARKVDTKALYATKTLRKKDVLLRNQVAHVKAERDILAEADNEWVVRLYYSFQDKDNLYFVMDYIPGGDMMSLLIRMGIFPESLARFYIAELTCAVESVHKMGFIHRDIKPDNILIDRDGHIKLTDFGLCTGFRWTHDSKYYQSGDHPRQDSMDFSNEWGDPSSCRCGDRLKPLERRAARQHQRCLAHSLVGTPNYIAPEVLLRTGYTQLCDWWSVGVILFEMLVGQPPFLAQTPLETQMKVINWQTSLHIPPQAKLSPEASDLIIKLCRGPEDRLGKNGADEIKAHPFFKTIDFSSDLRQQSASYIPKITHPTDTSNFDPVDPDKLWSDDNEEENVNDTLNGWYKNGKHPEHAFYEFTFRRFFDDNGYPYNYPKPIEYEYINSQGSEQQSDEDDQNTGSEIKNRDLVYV

human retinal organoids = test: apoptosis in human retinal organoids (activated caspase 3 labeling); conditions: 10 μM TRULI or 3 μM TDI-011536
Excerpt: Control experiments relating to gene expression in retinal organoids. (A) Although
increased b-actin concentrations in mitotically active cells.
extensive proliferation of Müller cells marked with Sox2 (green), as signaled by labeling with
arrowheads). DAPI (blue) marks all the nuclei.

cardiomyocytes = test: EdU incorporation in hearts of mice after right-ventricle cryolesion; type: in vivo, mouse
Excerpt: Cardiomyocytes ordinarily display little or no proliferation in mature mammals; instead, cardiac lesions in mice evoke scarring ([18]). To ascertain whether TDI-011536 restores a capacity for proliferation, we therefore examined the effect of systemic administration of the compound on damaged hearts in mice. After optimizing the surgical approach and establishing an appropriate dosage regime, we conducted eight experiments on male 8-week-old mice. In each instance, we used a metal probe cooled in liquid nitrogen to create a small cryolesion on the right ventricle ([18]).
In 33 images from 13 sections from the hearts of the two animals treated with TDI-011536 for 3 d, the average density of EdU labeling was 17.0 ± 3.5 μm^−2 (mean ± SD; SI Appendix, Table S3). By contrast, 28 images from 12 sections from controls yielded a labeling density of 5.6 ± 2.1 μm^−2 (mean ± SD; SI Appendix, Table S4). Because the values for the two control samples were not statistically different, those data were combined. […] Combining the experimental results as well yielded an overall significance of P < 10^−21 (SI Appendix, Fig. S5). […]
Cryolesioning of the murine right ventricle
Cardiac lesions were produced by a variant of a published method (6). Twenty minutes before surgery, an adult Swiss Webster mouse (Charles River Laboratories) four or eight weeks of age and of either sex was given buprenorphine subcutaneously at a dosage of 100 µg/kg for analgesia. The animal was anesthetized with 100 mg/kg of ketamine and 5 mg/kg of xylazine administered intraperitoneally in sterile water. The animal's mid-ventrum was shaved, chemically depilitated, and sterilized with a povidine-iodine swab. The area of the skin incision was infiltrated intradermally with 1 mg/kg of bupivacaine. Subsequent procedures were conducted beneath a surgical microscope and under sterile conditions in a HEPA-filtered, […]
With the animal supine on a thermostatted heating pad at 40 °C, an oblique, 15 mm-long incision was made from the xiphoid process parallel to the left lower costal margin and about 3 mm caudal to it. After the abdominal musculature and peritoneum had been transected with scissors in the same pattern, a miniature retractor was introduced to separate the two […]
sides of the incision. This approach exposed the upper margin of the liver and provided a view of the beating heart and the base of the left lung through the transparent diaphragm.
A cryolesion of the right ventricle was created with a round aluminum rod of mass 1.44 g secured to a plastic handle. A total of 76 mm in length, the rod was 3.2 mm in diameter over a distance of 59 mm at the base and 2.15 mm in diameter over the 17 mm at the tip. […]

[2] = system: Müller glia in human retinal organoids; test: proliferation of Müller glia in human retinal organoids (EdU/Sox9); type: cell-based
Excerpt: (§1) Fig. 2. […] Each sample includes five organoids; β-actin serves as a loading control.
(§2) The supernatants were filtered and the lysates
(§3) The proteins were transferred to a PVDF
(§4) The extent of proliferation was […]

[3] = tolerability of intraperitoneal dosing in mice
Excerpt: Assays of Lats kinase inhibition
assigned to treated and control groups.
Measurement of in vivo Lats inhibition

[4] = system: Yap phosphorylated at residue S127 (pYap); test: in vivo Lats inhibition: immunoblot of pYap and tYap in heart, liver and skin after intraperitoneal injection
Procedure: The compound was dissolved in Kolliphor HS 15, a vehicle that was also injected into control animals.
Engagement of target organs in vivo. (A) Immunoblots portray the amounts of Yap phosphorylated at residue S127 (pYap) and the total amounts of Yap (tYap) in the liver, heart, and skin. […] Glyceraldehyde 3-phosphate dehydrogenase (Gapdh) is included in each instance as a loading control.
We compared the original 200 mg/kg dose to injections of 100 mg/kg and 50 mg/kg.
procedures involved Swiss Webster mice (Charles River Laboratories) of both sexes and were conducted with the approval of Rockefeller University's Institutional Animal Care and Use Committee. Within each experiment, animals were age- and sex-matched and were randomly assigned to treated and control groups.
each day of treatment, an animal received a single intraperitoneal injection of the mixture to
In the principal experiment with a dosage of 100 mg/kg, or 20 mL/kg, a typical animal of mass 30 g received an injection of 0.6 mL of
Fifty milligrams of heart, liver, or skin tissue was lysed on ice in radioimmunoprecipitation-assay
After remaining on ice for 30 min, the samples were sonicated at low power for 2 min with 10 s exposures separated by 10 s interruptions, then
The supernatants were filtered and the lysates were immediately subjected to electrophoresis or stored at -80 °C.
A standard immunoblotting protocol was used. After lysates had been prepared, 10 mg
gradient bis-tris gel (NP0322, Thermo Fisher). The proteins were transferred to a PVDF
(ab8245, Abcam), which were reconstituted at a dilution of 1:1000 in blocking solution. After a
Secondary antibodies conjugated to horseradish peroxidase (W401B and W402B, Promega) were applied at a dilution of 1:10,000 in the same solution for one hour at room temperature
were acquired with an iBright FL1000 system (Invitrogen).

[5] = system: Yap phosphorylation in human retinal organoids; test: Yap phosphorylation in human retinal organoids (immunoblot pYap/tYap); type: cell-based; conditions: 3 μM, 24 h, vs DMSO controls
Excerpt: as §1, §2, §3, §4

[6] = human liver microsome stability; type: in vitro ADME; set-up: unit not given here
Excerpt: (§5) Fig. 1. […] HLM, human liver microsome; MLM, mouse liver microsome.

[7] = mouse liver microsome stability; type: in vitro ADME; set-up: unit not given here
Excerpt: as §5

Yap target genes = test: RNA sequencing of livers and hearts after injection; type: in vivo, mouse
[8] = system: supporting cells of the internal ear; set-up: method as in PMID 34035288; conditions: in vitro; cited from earlier work
[9] = heart, 4 h after 200 mg/kg, ± SEM, three measurements
[10] = liver, 4 h after 200 mg/kg, ± SEM, three measurements

Structure (SMILES): O=C(/N=c1\scc(CO)n1Cc1ccccc1)c1c[nH]c2ncccc12 [TDI-011536]
- EC50 ([1]; read-out: EC50 (mean ± SEM) for pYap/tYap): 40.8 ± 4.5 nM
- EC50 ([1]; HEK293A cells, value printed in Fig. 1A, read-out: pYAP EC50): 10 nM
- IC50 (LATS1): 0.76 nM
- true inhibitory activities (LATS1): lower than 1 nM
- apoptosis by labeling for activated caspase 3 (human retinal organoids): little apoptosis
- EdU-labeled cardiomyocytes at high magnification (cardiomyocytes; 100 mg/kg i.p. two or three days after cryolesion): numerous labeled cardiomyocytes
- density of EdU-labeled cells, Specimen 1 (mean ± SD) (cardiomyocytes; 14 images, treated animal): 15.2 ± 3.0 mm-2
- density of EdU-labeled cells, Specimen 2 (mean ± SD) (cardiomyocytes; 19 images, treated animal): 18.3 ± 3.4 mm-2
- average density of EdU labeling (mean ± SD) (cardiomyocytes; two animals treated for 3 d, 100 mg/kg i.p., 33 images from 13 sections, controls 5.6 ± 2.1): 17 ± 3.5 mm^-2
- increase in the number of cells doubly positive for EdU and Sox9 ([2]; 3 μM, 5 d treatment): tenfold
- survival and ill effects ([3]; both, Swiss Webster, mouse, in vivo, ip, 100 mg/kg, 2 wk): survival of all the mice for 2 wk with no apparent ill effects
- toxicity of systemic administration in young mice ([3]; young mice, intraperitoneal injection): lethality related to intraperitoneal injection
- pYap in liver, heart and skin ([4]; 50 mg/kg, after 4 h): no longer diminished pYap significantly in any organ
- dephosphorylation of Yap in the liver and heart ([4]; 100 mg/kg, through 4 h): maintained the dephosphorylation of Yap
- dephosphorylation of Yap in the skin ([4]; 100 mg/kg, through 4 h): failed to do so
- pYap levels ([4]; 200 mg/kg intraperitoneal, by eight hours): returned to their baseline levels
- pYap relative to total Yap in heart, liver and skin ([4]; 200 mg/kg intraperitoneal, two or four hours after injection): remarkable reduction
- pYap in liver, heart and skin ([4]; 200, 100 and 50 mg/kg, within 2 h of injection): profound reductions of pYap
- duration of Lats inhibition in the liver, heart, and skin ([4]; injection of 200 mg/kg): over 4 h
- reduction in Yap phosphorylation (ratio of pYap to tYap) [5]: ~80%
- HLM activity [6]: 36
- MLM activity [7]: 72
- Amotl2 expression, Heart, Treated (Yap target genes; [9]): 11.53 ± 0.13 rLog
- Ccn1 expression, Heart, Treated (Yap target genes; [9]): 11.46 ± 0.29 rLog
- Ccn2 expression, Heart, Treated (Yap target genes; [9]): 14.02 ± 0.14 rLog
- Myc expression, Heart, Treated (Yap target genes; [9]): 8.15 ± 0.10 rLog
- gene set-enrichment of genes characteristically activated upon Yap expression (Yap target genes; liver and heart, 4 h after 200 mg/kg): significant enrichment
- damage in the organs examined (gene set-enrichment for inflammation and apoptosis terms) (Yap target genes; liver and heart, 4 h treatment in vivo, 200 mg/kg): did not elicit significant damage
- Amotl2 expression, Liver, Treated (Yap target genes; [10]): 10.21 ± 0.07 rLog
- Ccn1 expression, Liver, Treated (Yap target genes; [10]): 9.50 ± 0.27 rLog
- Ccn2 expression, Liver, Treated (Yap target genes; [10]): 10.55 ± 0.33 rLog
- Myc expression, Liver, Treated (Yap target genes; [10]): 10.67 ± 0.23 rLog

Structure (SMILES): Cc1cs/c(=N\C(=O)c2c[nH]c3ncccc23)n1Cc1ccccc1 [TDI-011241]
- EC50 ([1]; read-out: pYAP EC50): 107 nM
- IC50 (LATS1): 0.96 nM
- true inhibitory activities (LATS1): lower than 1 nM
- HLM activity [6]: 224
- MLM activity [7]: 358

Structure (SMILES): Cc1cn(Cc2ccccc2)/c(=N/C(=O)c2c[nH]c3ncccc23)s1 [TDI-011214]
- EC50 ([1]; read-out: pYAP EC50): 3140 nM
- IC50 (LATS1): 224 nM

Structure (SMILES): O=C(/N=c1\sccn1Cc1ccccc1)c1c[nH]c2ncccc12 [TRULI, reference compound]
- EC50 ([1]; read-out: pYAP EC50): 586 nM
- apoptosis by labeling for activated caspase 3 (human retinal organoids): little apoptosis
- mitosis in supporting cells of the organ of Corti [8]: fails to elicit such a response
- mitosis in supporting cells of the utricle [8]: robust mitosis
- increase in the number of Sox9-positive Müller glia that incorporated EdU ([2]; 10 μM, 5-d treatment): almost fivefold
- HLM activity [6]: 200
- MLM activity [7]: 303
